One assay concerns the target T1, DNA-PK (Homo sapiens, UniProt P78527).
T1 construct: purchased Invitrogen PR9107A
The assay can be described thus: DNA-PK Assay for Biochemical Enzymatic Inhibition (ADP Glo Kinase assay). As to the method:
A biochemical assay was performed to identify IC50 values against DNA-PK activity in a two-step reaction with a kinase reaction followed by ADP Glo™ Kinase assay Kit (Promega V9102).
Three-fold serial dilutions of compounds in DMSO were prepared in kinase assay buffer (50 mM HEPES pH 7.5, 20 mM MgCl2, 100 mM KCl, 50 μM DTT, 10 μg/ml calf thymus DNA, 0.01% Tween 20). Kinase assay buffer was used to prepare compound treatments to 0.02% DMSO (dimethyl sulphoxide) content. DMSO controls were prepared to produce a maximum and minimum luminescence signal for normalization. Substrate (Anaspec, AS-60210-5) and ATP (Promega V9102) and ATP mix was prepared by dilution in kinase assay buffer for 434.4 μM and 64.4 μM final assay concentrations, respectively. Compounds and control were added to 25 ng DNA-PK enzyme (Invitrogen, PR9107A) diluted in kinase buffer in assay plate (Corning 267459) and incubated for 15 minutes at room temperature prior to addition of substrate and ATP mix.
Throughout the assay, each time a reagent was added to the microplate, it was centrifuged for 1 minute at 1300 rcf. All reagents were added, and incubations carried out at room temperature. The reaction was then incubated for 60 minutes. ADP-ATP standards at 0, 4, 10, 40, 80, and 100% ADP (prepared as specified in the ADP Glo™ Kinase assay kit) were also added to the microplate at a volume equal to the total kinase reaction. The ADP Glo™ Kinase Assay kit was then used to quantify DNA-PK activity: following the 60-minute incubation, a 1:1 volume of ADP Glo reagent was added to all wells, then following a further 45-minute incubation, a 1:1 volume of Kinase Detection Reagent was added to all wells. After this two-step assay, plates were incubated in a Synergy-Neo2 plate reader for 30 minutes with gentle shaking, followed by endpoint luminescent read Luminescence data was normalized by subtracting the background signal and expressing all background-adjusted values as a percentage of the average maximum signal. The data was then expressed as percent inhibition by subtracting from 100% (i.e. maximum luminescent signal will be 0% inhibition) and the resulting data plotted against ten concentration points on a logarithmic scale, using GraphPad Prism. Non-linear regression analysis was performed on each concentration response curve and the log [inhibitor] vs response—variable slope (four parameters) equation was selected to generate IC50 values.

The target of assay [1] is T2, DNA-PK phosphorylation at Serine 2056 (Homo sapiens, UniProt P78527).
T2 construct: host or cells: FaDu
The experiment in a line: Cellular Assay for Inhibition of DNA-PK Phosphorylation at Serine 2056 (FaDu cells, neocarzinostatin, sandwich ELISA). Format: cell-based. The method, then: FaDu cells were purchased from ATCC and maintained in MEM alpha medium (Life Technologies, cat. no. 12561) supplemented with 10% fetal bovine serum, and 1% GlutaMAX at 37° C. supplemented with 5% CO2. 50,000 cells were seeded to each well of a 96-well cell culture plate in 50 μL of culture medium and incubated for 16-24 hours. Three-fold serially diluted compounds were prepared in DMSO. Culture media was used to prepare compound treatments to 0.3% DMSO (dimethyl sulphoxide) content. Compound treatments were added to the cells for 1 hour prior incubation, followed by the addition of neocarzinostatin in fresh culture medium to 1 μg/mL final concentration for an additional 2 hours incubation to induce DNA DSBs (double-strand breaks). DMSO controls were incubated with fresh culture medium alone for the additional two hours incubation. The cells were then lysed and frozen at −20° C. Cell lysates were thawed on wet ice and protein concentrations quantified by BCA Protein Assay (Thermo # 23225). Lysis buffer was used to normalize lysates by protein content and all lysates were then investigated by sandwich ELISA by means of DNA-PK-specific antibodies (Abcam ab44815: total DNA-PK; ab124918: phosphoserine-2056 DNA-PK) in sandwich ELISA format on the MSD S600MM platform (MesoScale Discovery). % inhibition was calculated for all data points: =1−(DATA_PT−AVERAGE(DMSO controls))/(AVERAGE(NCS controls)−AVERAGE(DMSO controls)). Logarithm of the molar concentration of compound was plotted against percent inhibition to calculate IC50 values, with curve fit settings for data fit to log(inhibitor) vs. normalized response—Variable slope using curve fit software (GraphPad Prism).

A value given as a limit tells only on which side of the number the result lay.

As to `c1ccc(CN[C@H]2CC[C@@H](Oc3nc(N4CCOCC4)cc4ncccc34)CC2)cc1` [Compound 155, (1s,4s)-N-benzyl-4-((7-morpholino-1,6-naphthyridin-5-yl)oxy)cyclohexan-1-amine], the IC50 on DNA-PK (Table 1) was in the range of 0.01 to 0.15 µM; in assay [1] (Table 1) it was 10 to 30 µM.

Turning to `O=S(=O)(N[C@H]1CC[C@@H](Oc2nc(N3CCOCC3)cc3ncccc23)CC1)c1ccccc1` [Compound 147, N-((1s,4s)-4-((7-Morpholino-1,6-naphthyridin-5-yl)oxy)cyclohexyl)benzenesulfonamide], on DNA-PK (Table 1), the IC50 is 0.01 to 0.15 µM. As for `CN(C)C(=O)c1cnc(N[C@H]2CC[C@@H](Oc3nc(N4CCOCC4)cc4ncc(NS(C)(=O)=O)cc34)CC2)nc1` [LFA030, 2-[[4-[[3-(Methanesulfonamido)-7-morpholino-1,6-naphthyridin-5-yl]oxy]cyclohexyl]amino]-N,N-dimethyl-pyrimidine-5-carboxamide], the IC50 on DNA-PK (Table 2) is under 0.0005 µM; in assay [1] (Table 2), 0.1 to 1 µM.

Take `Cn1cc([C@H]2CC[C@@H](Oc3nc(N4CCOCC4)cc4ncc(O)cc34)CC2)cn1` [Compound 4b, 5-(((1r,4r)-4-(1-methyl-1H-pyrazol-4-yl)cyclohexyl)oxy)-7-morpholino-1,6-naphthyridin-3-ol]: at DNA-PK (Table 1), the IC50 is 0.01 to 0.15 µM. For `Nc1cnc2cc(N3CCOCC3)nc(O[C@H]3CC[C@@H](Nc4ncccn4)CC3)c2c1` [LFA107, 7-morpholino-5-[4-(pyrimidin-2-ylamino)cyclohexoxy]-1,6-naphthyridin-3-amine], the IC50 at DNA-PK (Table 2) was under 0.0005 µM; in assay [1] (Table 2), under 0.1 µM. For `CC(=O)Nc1cnc2cc(N3CCOCC3)nc(O[C@H]3CC[C@@H](n4ccnc4)CC3)c2c1` [Compound 162, N-(5-(((1s,4s)-4-(1H-imidazol-1-yl)cyclohexyl)oxy)-7-morpholino-1,6-naphthyridin-3-yl)acetamide], at DNA-PK (Table 1), the IC50 is 0.01 to 0.15 µM. Turning to `O=C(N[C@H]1CC[C@@H](Oc2nc(N3CCOCC3)cc3ncccc23)CC1)c1cncnc1C(F)(F)F` [Compound 130, N-((1s,4s)-4-((7-morpholino-1,6-naphthyridin-5-yl)oxy)cyclohexyl)-4-(trifluoromethyl)pyrimidine-5-carboxamide], the IC50 at DNA-PK (Table 1) was in the range of 0.01 to 0.15 µM. On to `O=C([C@H]1CC[C@@H](Oc2nc(N3CCOCC3)cc3ncccc23)CC1)N1CCOCC1` [Compound 154a, morpholino((1S,4S)-4-((7-morpholino-1,6-naphthyridin-5-yl)oxy)cyclohexyl)methanone], for which, at DNA-PK (Table 1), the IC50 lay in the range of 0.01 to 0.15 µM. For the compound `FC(F)(F)c1ccnn1[C@H]1CC[C@@H](Oc2nc(N3CCOCC3)cc3ncccc23)CC1` [Compound 17d, 4-(5-(((1s,4s)-4-(5-(trifluoromethyl)-1H-pyrazol-1-yl)cyclohexyl)oxy)-1,6-naphthyridin-7-yl)morpholine], the IC50 was in the range of 0.001 to 0.01 µM on DNA-PK (Table 1) and 0.1 to 1 µM in assay [1] (Table 1). `COc1cnc(N[C@H]2CC[C@@H](Oc3nc(N4CCOCC4)cc4ncc(Br)cc34)CC2)nc1` [Compound 18c, N-((1s,4s)-4-((3-Bromo-7-morpholino-1,6-naphthyridin-5-yl)oxy)cyclohexyl)-5-methoxypyrimidin-2-amine]: at DNA-PK (Table 1), the IC50 fell in the range of 0.01 to 0.15 µM.

Consider `FC(F)(F)c1ccn([C@H]2CC[C@@H](Oc3nc(N4CCOCC4)cc4ncccc34)CC2)n1` [Compound 17c, 4-(5-(((1s,4s)-4-(3-(trifluoromethyl)-1H-pyrazol-1-yl)cyclohexyl)oxy)-1,6-naphthyridin-7-yl)morpholine], for which, on DNA-PK (Table 1), the IC50 fell in the range of 0.01 to 0.15 µM. The same measure, in the same setting: as for `CCOC(=O)N[C@H]1CC[C@@H](Oc2nc(N3CCOCC3)cc3ncccc23)CC1` [Compound 104, Ethyl ((1s,4s)-4-((7-morpholino-1,6-naphthyridin-5-yl)oxy)cyclohexyl)carbamate], the figure is 0.01 to 0.15 µM; as for `CN1CCN(C(=O)[C@H]2CC[C@@H](Oc3nc(N4CCOCC4)cc4ncccc34)CC2)CC1` [Compound 154d, (4-methylpiperazin-1-yl)((1S,4S)-4-((7-morpholino-1,6-naphthyridin-5-yl)oxy)cyclohexyl)methanone], 0.01 to 0.15 µM. Turning to `Cc1nccc(N[C@H]2CC[C@@H](Oc3nc(N4CCOCC4)cc4ncccc34)CC2)n1` [Compound 37, 2-methyl-N-((1s,4s)-4-((7-morpholino-1,6-naphthyridin-5-yl)oxy)cyclohexyl)pyrimidin-4-amine], the IC50 on DNA-PK (Table 1) is under 0.0005 µM; in assay [1] (Table 1), 0.1 to 1 µM. For `CN(c1cnc2cc(N3CCOCC3)nc(O[C@H]3CC[C@@H](N(C)c4ncccn4)CC3)c2c1)S(C)(=O)=O` [Compound 199, N-methyl-N-(5-(((1s,4s)-4-(methyl(pyrimidin-2-yl)amino)cyclohexyl)oxy)-7-morpholino-1,6-naphthyridin-3-yl)methanesulfonamide], the IC50 at DNA-PK (Table 1) was in the range of 0.01 to 0.15 µM.

For the compound `COc1ccc(S(=O)(=O)N[C@H]2CC[C@@H](Oc3nc(N4CCOCC4)cc4ncccc34)CC2)cc1` [Compound 149, 4-Methoxy-N-((1s,4s)-4-((7-morpholino-1,6-naphthyridin-5-yl)oxy)cyclohexyl)benzenesulfonamide], the IC50 on DNA-PK (Table 1) lay within 0.01 to 0.15 µM. On the same count and under the same terms, in the case of `Cn1cc([C@H]2CC[C@H](Oc3nc(N4CCOCC4)cc4ncc(Br)cc34)CC2)cn1` [Compound 3b, 4-(3-bromo-5-(((1r,4r)-4-(1-methyl-1H-pyrazol-4-yl)cyclohexyl)oxy)-1,6-naphthyridin-7-yl)morpholine] it was 0.01 to 0.15 µM; in that of `O=S(=O)(N[C@H]1CC[C@@H](Oc2nc(N3CCOCC3)cc3ncccc23)CC1)c1ccc(F)cc1` [Compound 148, 4-Fluoro-N-((1s,4s)-4-((7-morpholino-1,6-naphthyridin-5-yl)oxy)cyclohexyl)benzenesulfonamide], 0.01 to 0.15 µM.

For the compound `CNC(=O)c1cnc(N[C@H]2CC[C@@H](Oc3nc(N4CCOCC4)cc4ncc(NS(C)(=O)=O)cc34)CC2)nc1` [LFA029, 2-[[4-[[3-(Methanesulfonamido)-7-morpholino-1,6-naphthyridin-5-yl]oxy]cyclohexyl]amino]-N-methyl-pyrimidine-5-carboxamide], the IC50 is under 0.0005 µM on DNA-PK (Table 2) and 0.1 to 1 µM in assay [1] (Table 2). Compound `CS(=O)(=O)Nc1cnc2cc(N3CCOCC3)nc(O[C@H]3CC[C@@H](n4cc(F)cn4)CC3)c2c1` [LFA1061, N-[5-[4-(4-fluoropyrazol-1-yl)cyclohexoxy]-7-morpholino-1,6-naphthyridin-3-yl]methanesulfonamide] showed an IC50 in assay [1] (Table 3) of under 0.1 µM. On the same count and under the same terms, in the case of `CS(=O)(=O)Nc1cnc2cc(N3CCOCC3)nc(O[C@H]3CC[C@@H](Nc4ccccn4)CC3)c2c1` [LFA1034, N-[7-morpholino-5-[4-(2-pyridylamino)cyclohexoxy]-1,6-naphthyridin-3-yl]methanesulfonamide] it was under 0.1 µM; in that of `CS(=O)(=O)Nc1cnc2cc(N3CCOCC3)nc(O[C@H]3CC[C@@H](Nc4ncccc4F)CC3)c2c1` [LFA1007, N-[5-[4-[(3-fluoro-2-pyridyl)amino]cyclohexoxy]-7-morpholino-1,6-naphthyridin-3-yl]methanesulfonamide], under 0.1 µM. On to `Oc1cnc2cc(N3CCOCC3)nc(O[C@H]3CC[C@@H](c4cnccn4)CC3)c2c1` [LFA1065, 7-morpholino-5-(4-pyrazin-2-ylcyclohexoxy)-1,6-naphthyridin-3-ol], for which the half-inhibitory concentration (IC50) in assay [1] (Table 3) is under 0.1 µM. Still for that read-out and setting: in the case of `CS(=O)(=O)Nc1cnc2cc(N3CCOCC3)nc(O[C@H]3CC[C@@H](c4cnccn4)CC3)c2c1` [LFA1064, N-[7-morpholino-5-(4-pyrazin-2-ylcyclohexoxy)-1,6-naphthyridin-3-yl]methanesulfonamide] it was 0.1 to 1 µM.

These data come from patent publication US20240246960A1 (adMare Therapeutics Society, priority 2021, published 2024).
